Measured values taken from ChEMBL document CHEMBL4049386, “Discovery of an Inhibitor of the Proteasome Subunit Rpn11” (J Med Chem, 2017).

What was measured:
[1] = target: COP9 signalosome complex subunit 5 (Homo sapiens, UniProt Q92905); assay: Inhibition of CSN5 (unknown origin) using SCFskp2-Nedd8OG as substrate after 1 hr by fluorescence polarization assay
STAM-binding protein = target: T1, STAM-binding protein (Homo sapiens, UniProt O95630); assay: Inhibition of AMSH (unknown origin) using DiUbK63TAMRA as substrate by fluorescence assay
T1 sequence (O95630 whole entry): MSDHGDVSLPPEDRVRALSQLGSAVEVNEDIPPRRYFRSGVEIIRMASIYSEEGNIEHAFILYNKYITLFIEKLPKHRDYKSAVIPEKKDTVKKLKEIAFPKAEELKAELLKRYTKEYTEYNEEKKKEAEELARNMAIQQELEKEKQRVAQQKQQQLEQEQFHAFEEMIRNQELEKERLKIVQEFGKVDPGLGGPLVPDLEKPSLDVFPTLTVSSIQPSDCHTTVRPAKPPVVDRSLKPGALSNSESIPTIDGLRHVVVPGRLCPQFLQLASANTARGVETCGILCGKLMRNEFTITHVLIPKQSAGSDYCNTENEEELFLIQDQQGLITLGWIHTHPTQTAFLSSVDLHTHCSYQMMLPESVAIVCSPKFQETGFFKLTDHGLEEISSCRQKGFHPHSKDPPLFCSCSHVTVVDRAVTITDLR

[2] = target: T2, 26S proteasome non-ATPase regulatory subunit 14 (Homo sapiens, UniProt O00487); assay: Inhibition of 26S proteasome regulatory subunit RPN11 deubiquitinating activity in human erythrocytes using Ub4-pepOG protein substrate preincubated for 1 hr followed by substrate addition measured after 80 mins by fluorescence polarization assay
T2 sequence (O00487 whole entry): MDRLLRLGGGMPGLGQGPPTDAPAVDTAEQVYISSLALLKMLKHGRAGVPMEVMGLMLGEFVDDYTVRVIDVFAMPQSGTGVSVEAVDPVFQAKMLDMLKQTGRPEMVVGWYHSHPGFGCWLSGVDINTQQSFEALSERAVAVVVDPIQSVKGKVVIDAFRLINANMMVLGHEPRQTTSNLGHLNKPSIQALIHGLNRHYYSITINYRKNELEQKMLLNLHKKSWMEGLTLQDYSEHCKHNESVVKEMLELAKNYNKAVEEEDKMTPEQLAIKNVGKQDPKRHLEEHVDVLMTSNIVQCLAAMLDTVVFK

[3] = target: T2, 26S proteasome non-ATPase regulatory subunit 14; assay: Inhibition of 26S proteasome regulatory subunit RPN11 deubiquitinating activity in beta5 inhibitor MG132 pretreated human HeLa cells expressing UbG76V-GFP assessed as reduction in UbG76V-GFP degradation rate by fluorescence microscopic method; assay type: cell-based
[4] = Aqueous solubility of the compound; assay type: physicochemical; settings: buffer
HCT-116 = assay: cells; settings: Homo sapiens, HCT-116, 72 h
Description: Antiproliferative activity against human HCT116 cells after 72 hrs by Cell Titer-Glo assay

[5] = target: 72 kDa type IV collagenase (Homo sapiens, UniProt P08253); assay: Inhibition of recombinant human MMP2 catalytic domain (Tyr110 to Asp452 residues) expressed in yeast using Mca-Pro-Leu-Gly-Leu-Dpa-Ala-Arg-NH2.AcOH as substrate preincubated for 30 mins followed by substrate addition measured every minute for 20 mins by fluorescence assay
Sequence of 72 kDa type IV collagenase (P08253 whole entry, the tested form may be a part): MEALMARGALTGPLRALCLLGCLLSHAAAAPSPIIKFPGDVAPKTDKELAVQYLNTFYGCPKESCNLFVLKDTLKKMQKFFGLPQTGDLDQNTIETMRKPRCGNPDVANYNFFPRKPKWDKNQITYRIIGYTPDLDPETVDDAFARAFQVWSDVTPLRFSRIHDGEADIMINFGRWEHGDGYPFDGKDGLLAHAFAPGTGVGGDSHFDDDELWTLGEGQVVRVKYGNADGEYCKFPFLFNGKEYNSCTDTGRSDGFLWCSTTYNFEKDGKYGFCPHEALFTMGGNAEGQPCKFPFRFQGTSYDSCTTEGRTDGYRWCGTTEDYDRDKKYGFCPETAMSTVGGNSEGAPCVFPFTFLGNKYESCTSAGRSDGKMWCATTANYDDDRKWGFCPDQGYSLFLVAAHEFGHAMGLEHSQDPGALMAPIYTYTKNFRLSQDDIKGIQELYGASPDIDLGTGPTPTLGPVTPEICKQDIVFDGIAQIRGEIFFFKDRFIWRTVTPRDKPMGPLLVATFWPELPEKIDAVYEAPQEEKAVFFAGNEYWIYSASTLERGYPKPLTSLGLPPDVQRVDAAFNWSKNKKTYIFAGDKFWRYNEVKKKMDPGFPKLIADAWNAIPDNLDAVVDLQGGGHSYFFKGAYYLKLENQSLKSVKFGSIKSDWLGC

Sequence of COP9 signalosome complex subunit 5 (Q92905 whole entry, one chain of several): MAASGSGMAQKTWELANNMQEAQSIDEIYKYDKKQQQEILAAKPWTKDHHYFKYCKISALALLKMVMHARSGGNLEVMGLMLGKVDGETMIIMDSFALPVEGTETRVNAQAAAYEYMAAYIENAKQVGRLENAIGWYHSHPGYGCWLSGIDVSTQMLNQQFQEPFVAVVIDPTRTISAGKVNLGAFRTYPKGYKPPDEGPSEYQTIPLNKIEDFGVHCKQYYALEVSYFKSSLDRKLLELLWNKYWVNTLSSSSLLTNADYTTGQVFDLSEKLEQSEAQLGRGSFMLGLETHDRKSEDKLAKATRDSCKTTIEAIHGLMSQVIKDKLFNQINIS

| SMILES | IC50 [1] | IC50 (STAM-binding protein) | IC50 [2] | IC50 [3] | solubility [4] | IC50 (HCT-116) | IC50 [5] |
| --- | --- | --- | --- | --- | --- | --- | --- |
| CSc1cccc2cc(C(=O)NCCc3nccs3)cnc12 | > 100 µM | > 100 µM | > 40 µM | > 100 µM | – | – | – |
| Nc1cccc2cccnc12 [8-AMINOQUINOLINE] | – | – | > 100 µM | – | – | – | – |
| O=C(NCC1CCCO1)c1cnc2c(SSc3cccc4cc(C(=O)NCC5CCCO5)cnc34)cccc2c1 (stereo not given) | – | – | – | 1 µM | Soluble | – | – |
| Oc1cccc2cccnc12 [OXYQUINOLINE] | – | – | > 100 µM | – | – | 6 µM | – |
| O=C(NCc1ccc(F)cc1)c1cnc2c(SSc3cccc4cc(C(=O)NCc5ccc(F)cc5)cnc34)cccc2c1 | – | 0.9 µM | < 0.2 µM | > 10 µM | Insoluble | – | – |
| NC(=O)c1cnc2c(SSc3cccc4cc(C(N)=O)cnc34)cccc2c1 | 15.3 µM | 1.7 µM | – | 1.2 µM | – | – | – |
| Cc1ccc2cccc(S)c2n1 | > 100 µM | – | > 100 µM | – | – | > 50 µM | > 200 µM |
| O=C(CNC(=O)c1cnc2c(SSc3cccc4cc(C(=O)NCC(=O)NCC(=O)OCc5ccccc5)cnc34)cccc2c1)NCC(=O)OCc1ccccc1 | > 30 µM | 3.5 µM | > 5 µM | > 10 µM | – | – | – |
| O=C(NCc1cccnc1)c1cnc2c(SSc3cccc4cc(C(=O)NCc5cccnc5)cnc34)cccc2c1 | > 100 µM | – | 3.2 µM | > 10 µM | Soluble | – | – |
| O=C(NCc1ccncc1)c1cnc2c(SSc3cccc4cc(C(=O)NCc5ccncc5)cnc34)cccc2c1 | 7 µM | 0.5 µM | 0.2 µM | > 10 µM | – | – | – |
| O=C(NCc1ccccc1)c1cnc2c(SSc3cccc4cc(C(=O)NCc5ccccc5)cnc34)cccc2c1 | – | > 10 µM | – | > 10 µM | – | – | – |
| O=C(NCc1cccs1)c1ccc2cccc(SSc3cccc4ccc(C(=O)NCc5cccs5)nc34)c2n1 | – | – | > 100 µM | – | – | – | – |
| O=C(NCCc1cccs1)c1cnc2c(SSc3cccc4cc(C(=O)NCCc5cccs5)cnc34)cccc2c1 | – | – | – | 5 µM | Soluble | – | – |
| O=C(NCCc1nccs1)c1ccc2c(SSc3cccc4nc(C(=O)NCCc5nccs5)ccc34)cccc2n1 | 35 µM | > 100 µM | > 100 µM | > 100 µM | – | – | – |
| O=C(NCc1ccccc1)c1ccc2cccc(SSc3cccc4ccc(C(=O)NCc5ccccc5)nc34)c2n1 | – | – | > 100 µM | – | – | – | – |
| O=C(Nc1ncco1)c1cnc2c(SSc3cccc4cc(C(=O)Nc5ncco5)cnc34)cccc2c1 | 15 µM | 5 µM | 2.6 µM | > 10 µM | Soluble | – | – |
| O=C(NCCc1ccco1)c1cnc2c(SSc3cccc4cc(C(=O)NCCc5ccco5)cnc34)cccc2c1 | – | – | – | 1.4 µM | Soluble | – | – |
| COc1ccc(CNC(=O)c2cnc3c(SSc4cccc5cc(C(=O)NCc6ccc(OC)cc6)cnc45)cccc3c2)cc1 | – | – | < 0.2 µM | > 10 µM | Insoluble | – | – |
| O=C(NCc1ccco1)c1cnc2c(SSc3cccc4cc(C(=O)NCc5ccco5)cnc34)cccc2c1 | < 0.5 µM | – | – | 1 µM | Soluble | – | – |
| O=C(NCc1ccco1)c1ccnc2c(SSc3cccc4c(C(=O)NCc5ccco5)ccnc34)cccc12 | – | – | 2.2 µM | – | – | – | – |

| SMILES | IC50 [1] | IC50 (STAM-binding protein) | IC50 [2] | IC50 [3] | solubility [4] | IC50 (HCT-116) | IC50 [5] |
| --- | --- | --- | --- | --- | --- | --- | --- |
| COC(=O)CNC(=O)c1cnc2c(SSc3cccc4cc(C(=O)NCC(=O)OC)cnc34)cccc2c1 | > 100 µM | 2.2 µM | > 2 µM | > 0.3 µM | – | – | – |
| CNC(=O)c1cnc2c(SSc3cccc4cc(C(=O)NC)cnc34)cccc2c1 | – | 4.1 µM | – | – | – | – | – |
| COC(=O)c1ccnc2c(SSc3cccc4c(C(=O)OC)ccnc34)cccc12 | – | – | 1 µM | – | – | – | – |
| O=C(NCc1ccccn1)c1cnc2c(SSc3cccc4cc(C(=O)NCc5ccccn5)cnc34)cccc2c1 | > 50 µM | 17 µM | 4 µM | > 10 µM | Soluble | – | – |
| Cc1cccc2cccnc12 | – | – | > 100 µM | – | – | > 100 µM | – |
| O=C(O)c1ccnc2c(SSc3cccc4c(C(=O)O)ccnc34)cccc12 | – | – | 1.3 µM | – | – | – | – |
| COC(=O)c1cnc2c(SSc3cccc4cc(C(=O)OC)cnc34)cccc2c1 | – | – | 0.9 µM | – | – | – | – |
| COC(=O)c1ccc2cccc(SSc3cccc4ccc(C(=O)OC)nc34)c2n1 | – | – | > 50 µM | – | – | – | – |
| O=C(NCc1ccc2c(c1)OCO2)c1cnc2c(SSc3cccc4cc(C(=O)NCc5ccc6c(c5)OCO6)cnc34)cccc2c1 | – | < 0.2 µM | – | > 10 µM | Insoluble | – | – |
| Sc1cccc2ccccc12 | – | – | > 100 µM | – | – | > 100 µM | – |
| O=C(NCc1nccs1)c1cnc2c(SSc3cccc4cc(C(=O)NCc5nccs5)cnc34)cccc2c1 | 24 µM | – | – | – | Soluble | – | – |
| O=C(NCc1cccs1)c1cnc2c(SSc3cccc4cc(C(=O)NCc5cccs5)cnc34)cccc2c1 | – | – | – | 5 µM | Soluble | – | – |
| O=C(NCCc1nccs1)c1cnc2c(O)cccc2c1 | > 100 µM | > 100 µM | > 40 µM | > 100 µM | – | – | – |
| CSc1cccc2cccnc12 | – | – | > 100 µM | – | – | > 100 µM | – |
| O=C(O)c1ccc2cccc(SSc3cccc4ccc(C(=O)O)nc34)c2n1 | – | – | > 20 µM | – | – | – | – |
| O=C(NCCN1CCOCC1)c1cnc2c(SSc3cccc4cc(C(=O)NCCN5CCOCC5)cnc34)cccc2c1 | > 100 µM | 26 µM | – | > 10 µM | – | – | – |
| Sc1cccc2ncccc12 | – | – | > 100 µM | – | – | > 100 µM | – |
| O=C(NCc1cccs1)c1ccnc2c(SSc3cccc4c(C(=O)NCc5cccs5)ccnc34)cccc12 | – | – | 1 µM | – | – | – | – |
| O=C(NCc1ccc(C(F)(F)F)cc1)c1cnc2c(SSc3cccc4cc(C(=O)NCc5ccc(C(F)(F)F)cc5)cnc34)cccc2c1 | > 100 µM | 3.5 µM | 0.8 µM | > 10 µM | Insoluble | – | – |
| O=C(O)c1cnc2c(SSc3cccc4cc(C(=O)O)cnc34)cccc2c1 | – | – | 1.1 µM | – | – | – | – |
